Earlier results in US7858570B2, “Compositions and methods for removing urushiol and treating the resulting skin condition” (priority 2004, dated 2010).

How the values were obtained:
[1] = for cloud point: 1% H2O
[2] = in vivo
[3] = tested on: human immuno deficiency virus; settings: in the test tube

| Molecule | cloud point [1] | other results |
| --- | --- | --- |
| nonylphenol ethoxylate [6 mol nonylphenol ethoxylate] | less than 25 °C | – |
| nonylphenol ethoxylate [14 mol nonylphenol ethoxylate] | 92-99 °C | – |
| urushiol | – | time from skin exposure until rash breaks out [2]: 24 to 72 h |
| nonylphenol ethoxylate [8 mol nonylphenol ethoxylate] | less than 25 °C | – |
| nonylphenol ethoxylate [30 mol nonylphenol ethoxylate] | greater than 100 °C | – |
| nonylphenol ethoxylate [12 mol nonylphenol ethoxylate] | 78-83 °C | – |
| CCCCCCCCCc1ccc(OCCOCCOCCOCCOCCOCCOCCOCCOCCO)cc1 [nonoxynol-9, nonylphenoxypolyethoxyethanol] | – | concentration in a solution that stops HIV from reproducing [3]: 0.05% |
| nonylphenol ethoxylate [50 mol nonylphenol ethoxylate] | greater than 100 °C | – |
| nonylphenol ethoxylate [5 mol nonylphenol ethoxylate] | less than 25 °C | – |
| nonylphenol ethoxylate [2 mol nonylphenol ethoxylate] | less than 25 °C | – |
| NC(=O)NC1NC(=O)NC1=O (centres unmarked) [allantoin, glyoxyl-diureide] | – | solubility in water (at 25° C.): 0.5%; solubility (in words) (water and alcohol): soluble in water and alcohol |
| nonylphenol ethoxylate [10 mol nonylphenol ethoxylate] | – | pH ([1]; 10% sol.): 6.3 |
| nonylphenol ethoxylate [4 mol nonylphenol ethoxylate] | less than 25 °C | – |
